From patent US20150253328A1, “NANOMATERIAL-INDUCED CYTOTOXICITY DETECTION COMPOSITION AND KIT, AND NANOMATERIAL-INDUCED CYTOTOXICITY DETECTION METHOD” (KOREA UNIVERSITY RESEARCH AND BUSINESS FOUNDATION, priority 2011, published 2015)

What was measured:
Format in all cases: cell-based, human
[1] = system: Egr-1 and p-ERK proteins; experiment: ROS inhibitor assay (Western blot), HaCaT; conditions: 10 uM/ml NAC 2 hours before ZnO, 1 hour after ZnO, FIG. 13B
Experimental: (§1) A Western blot assay was performed in the same manner as described in Example 2, except for the following differences. At 2 hours before treatment with ZnO, cultured cells were treated with 10 uM/ml of the antioxidant N-acetyl cystein (NAC), and after 2 hours, the cells were treated with 2 ml of fresh DMEM medium free of FBS and P/S. After 1 hour from the treatment with ZnO, the medium was removed, and the cells were treated with 1×PBS, scraped with a scrapper, and then transferred to a 1.5 ml tube. […] Thus, it can be seen that the expressions of the marker proteins Egr-1 and p-ERK are increased by ROS (B: HaCaT, C: HEKn). Herein, the data points indicate the β-actin-normalized mean and ERK-normalized mean of three independent experiments compared using two-way Anova (***P<0.001).

[2] = system: Egr-1 and p-ERK proteins; experiment: ROS inhibitor assay (Western blot), HEKn; conditions: 10 uM/ml NAC 2 hours before ZnO, 1 hour after ZnO, FIG. 13C
Experimental: as §1

[3] = system: Egr-1 protein; experiment: MAPK inhibitor assay (Western blot, ZnO plus MAPK inhibitor); conditions: cells pre-treated with inhibitor 30 minutes before ZnO; 2 hours after ZnO
Experimental: A Western blot assay was performed in the same manner as described in Example 2, except for the following differences. At 30 minutes before treatment with ZnO, cells were treated with an MAPK (mitogen-activated proteinkinase) inhibitor (U0126: ERK inhibitor, SB600125: p38 inhibitor, SP239063: JNK inhibitor-sigma product), and after 30 minutes, the cells were treated with 2 ml of fresh DMEM medium free of FBS and P/S. After 2 hours from treatment with ZnO, the medium was removed, and the cells were treated with 1×PBS, scraped with a scrapper, and then transferred to a 1.5 ml tube.
A Western blot assay was performed in the same manner as described in Example 2, except for the following differences. At 30 minutes before treatment with ZnO, cells were treated with an MAPK (mitogen-activated proteinkinase) inhibitor (U0126: ERK inhibitor, SB600125: p38 inhibitor, SP239063: JNK inhibitor-sigma product), and after 30 minutes, the cells were treated with 2 ml of fresh DMEM medium free of FBS and P/S. After 2 hours from the treatment with ZnO, the medium was removed, and the cells were treated with 1×PBS, scraped with a scrapper, and then transferred to a 1.5 ml tube.

| SMILES | expression bands of Egr-1 protein [1] | expression bands of p-ERK protein [1] | expression bands of Egr-1 protein [2] | expression bands of p-ERK protein [2] | expression of the Egr-1 protein [3] |
| --- | --- | --- | --- | --- | --- |
| CC(=O)N[C@@H](CS)C(=O)O [NAC, N-acetyl cystein] | significantly decreased | significantly decreased | significantly decreased | significantly decreased | – |
| N#CC(=C(/N)Sc1ccccc1N)/C(C#N)=C(\N)Sc1ccccc1N [U0126] | – | – | – | – | significantly decreased |
